Assay results from EP1799816B1, “NOVEL LACCASE ENZYME AND USE THEREOF” (AB Enzymes Oy, priority 2004, dated 2006).
Read-outs that look alike come from different tables or passages of the source.

Legend:
[1] = target: T1, recombinant Thielavia arenaria TaLcc1 laccase (rTaLcc1) expressed in Trichoderma reesei, SEQ ID NO: 12 (Canariomyces arenarius, UniProt F6N9E7); type: biochemical
T1 sequence (F6N9E7 22-604): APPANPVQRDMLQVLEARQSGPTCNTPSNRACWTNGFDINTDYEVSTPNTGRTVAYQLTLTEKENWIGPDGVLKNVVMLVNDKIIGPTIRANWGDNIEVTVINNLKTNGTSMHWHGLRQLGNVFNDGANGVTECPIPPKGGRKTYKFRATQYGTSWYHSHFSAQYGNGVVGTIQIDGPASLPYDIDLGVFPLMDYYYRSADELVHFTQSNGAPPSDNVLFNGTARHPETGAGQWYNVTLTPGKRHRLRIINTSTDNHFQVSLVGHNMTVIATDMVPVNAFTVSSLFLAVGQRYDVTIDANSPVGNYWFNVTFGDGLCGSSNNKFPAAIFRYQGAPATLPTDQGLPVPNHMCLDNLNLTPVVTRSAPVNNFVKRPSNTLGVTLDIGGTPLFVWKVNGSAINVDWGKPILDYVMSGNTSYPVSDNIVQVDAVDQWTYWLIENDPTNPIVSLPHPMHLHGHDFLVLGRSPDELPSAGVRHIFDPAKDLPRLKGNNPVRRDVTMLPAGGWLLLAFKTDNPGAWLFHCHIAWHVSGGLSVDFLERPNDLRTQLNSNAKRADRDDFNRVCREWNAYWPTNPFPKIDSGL
Protocol: (§1) On syringaldazin and DMP 40 mM MES buffer, pH 6 and 25 mM succinate bluffer, All activity assays were carried out at 25°C. Kinetic parameters were estimated by a nonlinear regression curve fit. The values were compared to those of Melanocarpus albomyces MaL, laccase.

[2] = target: T2, Melanocarpus albomyces laccase MaL (Melanocarpus albomyces, UniProt Q70KY3); assay: Kinetic parameters (Km, kcat, kcat/Km) on laccase substrates; type: biochemical; conditions: substrate ABTS; 25 mM succinate buffer, pH 4.5, 25°C; comparison enzyme
T2 sequence (Q70KY3 51-609): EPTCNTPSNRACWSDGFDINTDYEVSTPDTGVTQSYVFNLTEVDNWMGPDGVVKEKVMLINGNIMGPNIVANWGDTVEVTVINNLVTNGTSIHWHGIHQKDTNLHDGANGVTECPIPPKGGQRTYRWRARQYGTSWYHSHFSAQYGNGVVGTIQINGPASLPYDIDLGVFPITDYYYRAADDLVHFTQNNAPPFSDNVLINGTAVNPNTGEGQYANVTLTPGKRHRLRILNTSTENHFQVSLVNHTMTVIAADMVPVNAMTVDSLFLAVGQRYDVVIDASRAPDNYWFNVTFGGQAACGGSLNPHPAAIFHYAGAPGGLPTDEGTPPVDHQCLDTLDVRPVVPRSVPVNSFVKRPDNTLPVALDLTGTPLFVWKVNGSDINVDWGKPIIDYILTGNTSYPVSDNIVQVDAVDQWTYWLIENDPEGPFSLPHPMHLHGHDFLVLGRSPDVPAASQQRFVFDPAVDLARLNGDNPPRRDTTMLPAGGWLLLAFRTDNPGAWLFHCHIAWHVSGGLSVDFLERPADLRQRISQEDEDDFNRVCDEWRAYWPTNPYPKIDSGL
Protocol: as §1

| Compound | kcat ([1]; substrate ABTS, 25 mM succinate buffer, pH 4.5, 25°C) [s⁻¹] | Km [2] [µM] | kcat [2] [s⁻¹] | kcat ([1]; substrate Syringaldazin, 25°C, buffer unclear (40 mM MES buffer, pH 6 / 25 mM succinate buffer)) [s⁻¹] |
| --- | --- | --- | --- | --- |
| CCn1c(=NN=c2sc3cc(S(=O)(=O)O)ccc3n2CC)sc2cc(S(=O)(=O)O)ccc21 [ABTS, 2,2'azinobis-3-ethylbenzthiazole-6-sulphonate] | 68.83 | 270 | 78.17 |  |
| COc1cc(C=NN=Cc2cc(OC)c(O)c(OC)c2)cc(OC)c1O [Syringaldazin, syringaldazine] |  |  |  | 32.33 |
